Laboratory results taken from US20070088043A1, “Novel HDAC inhibitors” (ORCHID RESEARCH LABORATORIES LIMITED., priority 2005, published 2007).

Legend:
NCIH 460 cells = experiment: Anti-cancer screen (MTT), NCIH460; assay type: cell-based; conditions: Homo sapiens, NCI-H460, NCIH460 cells, 48 hours, MTT; for GI50: concentration to decrease % growth by 50%; for IC100: concentration to decrease % growth by 100%, read-out: NCIH460 TGI; for LC50: concentration to decrease % growth by 150%
Experimental: (§1) Experimental drugs are screened for anti-cancer activity in three cell lines for their GI50, TGI and LC50 values (using five concentrations for each compound). The cell lines are maintained in DMEM containing 10% fetal bovine serum. 96 well micro titer plates are inoculated with cells in 100 μL for 24 h at 37° C., 5% CO2, 95% air and 100% relative humidity. 5000 HCT 116 cells/well, 5000 NCIH 460 cells/well and 5000 U251 cells/well are plated. A separate plate with these cell lines is also inoculated to determine cell viability before the addition of the compounds (T0).
(§2) Following 24-hour incubation, experimental drugs are added to the 96 well plates. Each plate contains one of the above cell lines and the following in triplicate: five different concentrations (0.01, 0.1, 1, 10 and 100 μM) of four different compounds, appropriate dilutions of a cytotoxic standard and control (untreated) wells. Compounds are dissolved in DMSO to make 20 mM stock solutions on the day of drug addition and frozen at −20° C. Serial dilutions of these 20 mM stock solutions are made in complete growth medium such that 100 μL of these drug solutions in medium, of final concentrations equaling 0.01, 0.1, 1, 10 and 100 μM can be added to the cells in triplicate. Standard drugs whose anti-cancer activity has been well documented and which are regularly used are doxorubicin and SAHA.
(§3) For To measurement, 24 hours after seeding the cells, 10 μL of 3-(4,5-Dimethyl-2-thiazolyl)-2,5-diphenyl-2H-tetrazolium (MTT) solution per well is added and incubation carried out for 3 hours at 37° C., 5% CO2, 95% air and 100% relative humidity, protected from light. Cells incubated with compounds for 48 hours are treated similarly except with the addition of 20 μL MTT solution per well and a subsequent incubation under the same conditions. After 3 hours of MTT incubation, well contents are aspirated carefully followed by addition of 150 μL DMSO per well. Plates are agitated to ensure solution of the formazan crystals in DMSO and absorbance read at 570 nm. […]

[1] = system: HDAC (Mouse Liver Extract); experiment: Histone Deacetylase (HDAC) Inhibition Assay using Boc-Lys (Ac)-AMC Substrate; assay type: biochemical; conditions: mouse liver enzyme, NA = No Activity, in % (unit assumed)
Source text: HDAC Activitv Screening: Histone Deacetylase (HDAC) Inhibition Assay using Boc-Lys (Ac)-AMC Substrate:
Inhibition of HDAC has been implicated to modulate transcription and to induce apoptosis or differentiation in cancer cells. The fluorometric assay provides a fast and fluorescence based method that eliminates radioactivity, extractions or chromatography, as used in traditional assays. The assay based on two steps. First, the HDAC fluorometric substrate, which comprises an acetylated lysine side chain, is incubated with a sample containing HDAC activity (Mouse Liver Extract). Deacetylation of the substrate sensitizes the substrate, in the second step; treatment with the Trypsin stop solution produces a fluorophore that can be easily analyzed using fluorescence plate reader.
Assay was done in 96 well black microplate and total volume of the assay is 100 ul. Mouse liver enzyme is diluted 1:6 with HDAC buffer. Enzyme cocktail made of 10 ul of diluted enzyme and 30 ul of HDAC buffer. 40 ul of enzyme cocktail dispensed into each well. 10 ul of different concentrations of inhibitor added in to each well, except enzyme control well. Preincubated the plate at 30° C. for 5 minutes. The HDAC reaction is started by adding 50 ul of HDAC substrate (Boc-Lys (Ac)-AMC Substrate) solution. Incubated the plate at 30° C. for 30 minutes. Adding 100 ul of Trypsin stop solution stops the reaction. The plate is incubated again at 30° C. for 20-30 minutes. The release of AMC is monitored by measuring the fluorescence at excitation wavelength of 365 or 360 nm and emission wavelength of 440 or 460 nm. Buffer and substrate alone kept for blank subtraction. (Dennis Wegener et al, Anal. Biochem, 321, 2003, 202-208).

[2] = system: NCIH460, HCT116, MDAMB231/U251; experiment: Anti-cancer screen, mean GI50 over the cell lines; assay type: cell-based; conditions: in µM
Experimental: as §1, §2, §3

MDAMB231/U251 = experiment: Anti-cancer screen (MTT), MDAMB231/U251; assay type: cell-based; conditions: MDAMB231/U251 cells, 48 hours; for GI50: concentration to decrease % growth by 50%; for IC100: concentration to decrease % growth by 100%, read-out: MDAMB231/U251 TGI; for LC50: concentration to decrease % growth by 150%
Experimental: as §1, §2, §3

HCT 116 cells = experiment: Anti-cancer screen (MTT), HCT116; assay type: cell-based; conditions: Homo sapiens, HCT-116, HCT116 cells, 48 hours, MTT; for GI50: concentration to decrease % growth by 50%; for IC100: concentration to decrease % growth by 100%, read-out: HCT116 TGI; for LC50: concentration to decrease % growth by 150%
Experimental: as §1, §2, §3

Compound	GI50 (NCIH 460 cells) [µM]	IC100 (NCIH 460 cells) [µM]	LC50 (NCIH 460 cells) [µM]	HDAC Inhibition 1 μM [1]	HDAC Inhibition 10 μM [1]	Mean GI50 [2]	GI50 (MDAMB231/U251) [µM]	IC100 (MDAMB231/U251) [µM]	LC50 (MDAMB231/U251) [µM]	GI50 (HCT 116 cells) [µM]	IC100 (HCT 116 cells) [µM]	LC50 (HCT 116 cells) [µM]
O=C(CCCCCCC(=O)N1CCN(CC(=O)Nc2nccs2)CC1)NO [Example 34, 8-{4-[2-(1,3-Thiazol-2-ylamino)-2-oxoethyl]piperazin-1-yl}-N-hydroxy-8-oxo octanamide]	> 100	> 100	> 100	45.65	89.86	28	6	74	> 100	50	> 100	> 100
COc1cc(CNC(=O)CN2CCN(C(=O)CCCCSC(C)=O)CC2)cc(OC)c1 [Example 20]	> 100	> 100	> 100	26.4	55.4	>100	> 100	> 100	> 100	> 100	> 100	> 100
O=C(CN1CCN(C(=O)CCCCCNO)CC1)Nc1nc2ccccc2s1 [Example 26]	9.5	92	> 100		4.5	15	27	85	> 100	8.6	> 100	> 100
CC(=O)SCCCCCC(=O)N1CCN(C(=O)CN2CCOCC2)CC1 [Example 2]	> 100	> 100	> 100	8.31	34.56	>100	> 100	> 100	> 100	> 100	> 100	> 100
Cc1cccc2sc(NC(=O)CN3CCN(C(=O)CCCCCCC(=O)NOCc4ccccc4)CC3)nc12 [Example 40, 8-{4-[2-(4-Methyl-1,3-benzothiazol-2-ylamino)-2-oxoethyl]piperazin-1-yl}-N-hydroxybenzyl-8-oxo octanamide]	24	85	> 100		4.1	9.5	0.1	0.5	> 100	4.5	32	> 100
Cc1ccc2nc(NC(=O)CN3CCN(C(=O)CCCCCS)CC3)sc2c1 [Example 25, N-6-methyl-1,3-benzothiazol-2-yl-2-[4-(6-mercaptohexanoyl)piperazin-1-yl]acetamide]	9	> 100	> 100		3.6	4.2	0.07	0.8	> 100	3.5	> 100	> 100
CC(=O)SCCCCCC(=O)N1CCN(C(=O)CNc2nc3ccc(C)cc3s2)CC1 [Example 3, N-{2-[4-(6-thioacetylhexanoyl)piperazin-1-yl]-2-oxoethyl}-6-methyl-1,3-benzo thiazol-2-amine]	> 100	> 100	> 100	42.40	86.74	>100	48	> 100	> 100	49	99	> 100
CC(=O)SCCCCCC(=O)N1CCN(CC(=O)N2CCOCC2)CC1 [Example 19, 2-[4-(6-Thioacetylhexanoyl)piperazin-1-yl]-N-(morpholine)acetamide]	> 100	> 100	> 100	18.82	51.25	>100	57	> 100	> 100	> 100	> 100	> 100
CSCC[C@@H](N)C(=O)NCCCCCC(=O)N1CCN(CC(=O)Nc2nc3ccccc3s2)CC1 [Example 42]	56	> 100	> 100			61	99.5	> 100	> 100	26	78	> 100
CC(=O)SCCCCC(=O)N1CCN(CC(=O)Nc2ncc([N+](=O)[O-])s2)CC1 [Example 9]	> 100	> 100	> 100	3.39	23.65	>100	> 100	> 100	> 100	> 100	> 100	> 100
CC(=O)SCCCCC(=O)N1CCN(CC(=O)Nc2nc3c(C)cccc3s2)CC1 [Example 13, 2-[4-(5-Thioacetylpentanoyl)piperazin-1-yl]-N-(4-methyl-1,3-benzothiazol-2-yl)acetamide]	> 100	> 100	> 100	26.73	55.56	>100	6	30	> 100	6	> 100	> 100
CC(=O)SCCCCCC(=O)N1CCN(CC(=O)Nc2cccc(F)c2)CC1 [Example 22, 2-[4-(6-Thioacetylhexanoyl)piperazin-1-yl]-N-(6-fluorophenyl-2-yl)acetamide]	> 100	> 100	> 100	6.0	50.0	>100	> 100	> 100	> 100	67	> 100	> 100
COc1cccc2sc(NC(=O)CN3CCN(C(=O)CCCCCN(OCc4ccccc4)C(C)=O)CC3)nc12 [Example 28, N-4-methoxy-1,3-benzothiazol-2-yl-2-{6-[6 (N-acetyl-O-benzyl)hexanoyl]piperazin-1-yl}acetamide]	21	> 100	> 100			8.86	0.08	9	> 100	5.5	58	> 100
Cc1cccc2sc(NC(=O)CN3CCN(C(=O)CCCCCNO)CC3)nc12 [Example 27]	8	> 100	> 100			14.70	28	80	> 100	8	> 100	> 100
